Each structure is given as a SMILES string.

The series is described as follows: BioPharmaceutical Classification System (BCS) solubility and permeability class. Format: physicochemical. The note with it: BCS 4 = poorly soluble and poor permeability. On the procedure:
The BioPharmaceutical Classification System (BCS) classifies drug substances as to their solubility and permeability. For example, a drug substance is considered highly soluble when the highest dose strength is soluble in ≤250 ml water over a pH range of 1-7, and highly permeable when the extent of absorption in humans is determined to be >90% of an administered dose, in comparison to an intravenous reference dose. A BCS 1 compound is highly soluble and highly permeable, while a BCS 4 compound is poorly soluble and has poor permeability. For BCS 4 compounds, bioavailability and the pharmacokinetic (PK) profile or parameters, such as mean maximum plasma concentration (Cmax), mean time to maximum plasma concentration (Tmax) and mean area under the plasma concentration vs. time curve (AUC) after oral administration, can be positively or negatively impacted by the formulation, the type of the excipients selected and the specific excipients. The safety and efficacy of the fixed combination oral product depends on these PK parameters being in the appropriate range. Compound 1 is a BCS 4 compound and therefore for fixed combination oral products having compound 1, or a corresponding amount of a pharmaceutically acceptable salt thereof, the type and specifics of the excipients must be carefully selected so as to achieve the target pharmacokinetic parameters.

As for `CONC(=O)Nc1ccc(-c2sc3c(c2CN(C)C)c(=O)n(-c2ccc(OC)nn2)c(=O)n3Cc2c(F)cccc2F)cc1` [Compound 1, N-(4-(1-(2,6-difluorobenzyl)-5-((dimethylamino)methyl)-3-(6-methoxy-3-pyr-idazinyl)-2,4-dioxo-1,2,3,4-tetrahydrothieno[2,3-d]pyrimidin-6-yl)phenyl)-N′-methoxyurea], the BCS class result is on record as “BCS 4”.

The values are drawn from patent US12551447B2, “Combination solid oral dosage forms of gonadotropin-releasing hormone antagonists” (Sumitomo Pharma Co., Ltd., priority 2020, dated 2026).
